Assay [1] is described as follows: Selectivity interaction (KinomeScan (DiscoverX)) EUB0000595a CDK2H. The conditions noted are these: at 10 µM.
The target in assay [2] is Rho-associated protein kinase 2 (Homo sapiens, UniProt O75116). Nature of the assay: Selectivity interaction (ActivX KiNativ screen (ex vivo kinase selectivity in human PBMCs)) EUB0001619a ROCK2. Type of assay: cell-based. As to conditions: PBMC, at 1 µM.
The target of assay [3] is Cyclin-dependent kinase 5/CDK5 activator 1 (Homo sapiens) (UniProt Q00535+Q15078). Nature of the assay: Selectivity interaction (SelectScreen profiling (Invitrogen)) EUB0000607a CDK5. Type of assay: protein-complex assay. As to conditions: at 2 µM.
Assay [4] concerns the target T1, Tyrosine-protein kinase Tec (Homo sapiens) (UniProt P42680).
T1 sequence (whole entry): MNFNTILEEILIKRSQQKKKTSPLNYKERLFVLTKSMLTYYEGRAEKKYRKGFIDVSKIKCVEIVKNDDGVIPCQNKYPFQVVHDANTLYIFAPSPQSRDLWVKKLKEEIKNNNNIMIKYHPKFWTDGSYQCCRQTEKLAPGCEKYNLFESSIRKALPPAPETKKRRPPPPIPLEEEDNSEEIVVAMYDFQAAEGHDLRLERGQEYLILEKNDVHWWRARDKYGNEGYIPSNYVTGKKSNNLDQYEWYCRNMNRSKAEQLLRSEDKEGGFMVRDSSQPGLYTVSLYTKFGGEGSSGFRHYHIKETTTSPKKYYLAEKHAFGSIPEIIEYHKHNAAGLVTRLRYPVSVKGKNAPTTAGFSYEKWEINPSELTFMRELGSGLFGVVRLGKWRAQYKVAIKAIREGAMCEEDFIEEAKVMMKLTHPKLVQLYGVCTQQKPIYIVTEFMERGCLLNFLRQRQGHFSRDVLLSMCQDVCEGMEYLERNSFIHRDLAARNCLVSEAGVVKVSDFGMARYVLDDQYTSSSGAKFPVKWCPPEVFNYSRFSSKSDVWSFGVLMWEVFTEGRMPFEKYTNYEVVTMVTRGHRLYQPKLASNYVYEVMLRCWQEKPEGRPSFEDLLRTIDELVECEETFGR
Nature of the assay: Selectivity interaction (KinomeScan (DiscoverX)) EUB0000607a TEC. As to conditions: at 10 µM.

Assay [5] deals with Serine/threonine-protein kinase PRP4 homolog (Homo sapiens) (UniProt Q13523). Nature of the assay: Selectivity interaction (ActivX KiNativ screen (kinase selectivity in THP-1 cell lysates)) EUB0000639a PRPF4. The format is subcellular. The conditions noted are these: lysate, at 1 µM.
Sequence of Serine/threonine-protein kinase PRP4 homolog (Homo sapiens) (Q13523 whole entry): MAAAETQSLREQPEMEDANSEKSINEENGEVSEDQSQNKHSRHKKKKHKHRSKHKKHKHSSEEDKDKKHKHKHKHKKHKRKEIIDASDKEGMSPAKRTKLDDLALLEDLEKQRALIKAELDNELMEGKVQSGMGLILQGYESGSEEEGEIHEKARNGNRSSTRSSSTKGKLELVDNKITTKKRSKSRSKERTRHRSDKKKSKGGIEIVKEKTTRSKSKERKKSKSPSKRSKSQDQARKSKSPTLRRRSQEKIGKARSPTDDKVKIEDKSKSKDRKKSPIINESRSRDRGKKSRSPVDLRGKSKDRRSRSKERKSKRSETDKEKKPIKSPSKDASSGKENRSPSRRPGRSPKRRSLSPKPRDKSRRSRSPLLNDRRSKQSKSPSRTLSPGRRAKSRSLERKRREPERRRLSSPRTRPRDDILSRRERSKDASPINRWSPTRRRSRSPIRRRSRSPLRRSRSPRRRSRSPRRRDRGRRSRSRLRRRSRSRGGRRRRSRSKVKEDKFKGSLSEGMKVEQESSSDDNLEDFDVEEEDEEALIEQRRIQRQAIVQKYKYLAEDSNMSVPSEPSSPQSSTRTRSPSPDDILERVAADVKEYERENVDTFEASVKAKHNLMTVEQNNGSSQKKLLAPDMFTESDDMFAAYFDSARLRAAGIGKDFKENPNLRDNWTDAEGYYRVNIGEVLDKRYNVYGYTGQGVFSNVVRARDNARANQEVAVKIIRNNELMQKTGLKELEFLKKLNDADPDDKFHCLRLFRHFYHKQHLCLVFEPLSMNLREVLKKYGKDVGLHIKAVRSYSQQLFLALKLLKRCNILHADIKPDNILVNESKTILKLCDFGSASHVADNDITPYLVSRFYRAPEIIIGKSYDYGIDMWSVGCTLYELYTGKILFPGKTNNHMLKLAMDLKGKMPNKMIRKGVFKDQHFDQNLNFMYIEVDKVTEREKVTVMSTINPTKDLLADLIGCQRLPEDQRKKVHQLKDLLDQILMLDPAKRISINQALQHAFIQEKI
Assay [6] deals with T2, Inhibitor of nuclear factor kappa-B kinase subunit alpha (Homo sapiens) (UniProt O15111).
T2 sequence (whole entry): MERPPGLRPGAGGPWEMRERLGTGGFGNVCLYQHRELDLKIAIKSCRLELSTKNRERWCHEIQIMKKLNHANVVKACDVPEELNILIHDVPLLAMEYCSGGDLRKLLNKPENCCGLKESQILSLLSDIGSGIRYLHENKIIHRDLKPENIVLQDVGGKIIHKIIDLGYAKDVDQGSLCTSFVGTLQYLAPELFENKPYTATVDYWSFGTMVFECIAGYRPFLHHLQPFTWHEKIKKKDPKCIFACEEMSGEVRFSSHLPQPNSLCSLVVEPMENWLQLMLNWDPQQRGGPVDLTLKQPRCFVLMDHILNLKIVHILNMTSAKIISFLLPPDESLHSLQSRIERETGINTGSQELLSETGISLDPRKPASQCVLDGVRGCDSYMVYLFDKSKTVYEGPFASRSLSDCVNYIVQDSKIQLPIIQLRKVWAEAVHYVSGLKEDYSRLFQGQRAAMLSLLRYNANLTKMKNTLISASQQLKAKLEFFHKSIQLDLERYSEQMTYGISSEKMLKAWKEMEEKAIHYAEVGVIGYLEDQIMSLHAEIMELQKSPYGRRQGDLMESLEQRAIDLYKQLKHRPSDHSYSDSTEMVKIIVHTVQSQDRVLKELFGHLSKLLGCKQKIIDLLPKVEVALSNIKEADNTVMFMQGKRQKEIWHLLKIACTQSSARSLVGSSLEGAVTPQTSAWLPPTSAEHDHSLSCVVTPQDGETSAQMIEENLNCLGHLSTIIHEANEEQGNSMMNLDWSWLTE
Kind of assay: Selectivity interaction (Ambit KINOMEscan and KiNATiv profiling in Jurkat cells) EUB0000090b CHUK. The format is cell-based. The conditions noted are these: at 1 µM.

Assay [7] concerns the target Dual specificity protein kinase CLK4 (Homo sapiens, UniProt Q9HAZ1). Nature of the assay: Selectivity interaction (Ambit KINOMEscan and KiNATiv profiling in Jurkat cells) EUB0000090b CLK4. Type of assay: cell-based. As to conditions: at 1 µM.
Assay [8] has as its target Ribosomal protein S6 kinase alpha-3 (Homo sapiens, UniProt P51812). Nature of the assay: Selectivity interaction (Ambit KINOMEscan and KiNATiv profiling in Jurkat cells) EUB0000090b RPS6KA3. Type of assay: cell-based. The conditions noted are these: at 1 µM.
The target of assay [9] is 5'-AMP-activated protein kinase catalytic subunit alpha-1 (Homo sapiens, UniProt Q13131). Nature of the assay: Selectivity interaction (Kinase panel (Enzyme activity assay)) EUB0000612a PRKAA1.
Sequence of 5'-AMP-activated protein kinase catalytic subunit alpha-1 (Q13131 whole entry): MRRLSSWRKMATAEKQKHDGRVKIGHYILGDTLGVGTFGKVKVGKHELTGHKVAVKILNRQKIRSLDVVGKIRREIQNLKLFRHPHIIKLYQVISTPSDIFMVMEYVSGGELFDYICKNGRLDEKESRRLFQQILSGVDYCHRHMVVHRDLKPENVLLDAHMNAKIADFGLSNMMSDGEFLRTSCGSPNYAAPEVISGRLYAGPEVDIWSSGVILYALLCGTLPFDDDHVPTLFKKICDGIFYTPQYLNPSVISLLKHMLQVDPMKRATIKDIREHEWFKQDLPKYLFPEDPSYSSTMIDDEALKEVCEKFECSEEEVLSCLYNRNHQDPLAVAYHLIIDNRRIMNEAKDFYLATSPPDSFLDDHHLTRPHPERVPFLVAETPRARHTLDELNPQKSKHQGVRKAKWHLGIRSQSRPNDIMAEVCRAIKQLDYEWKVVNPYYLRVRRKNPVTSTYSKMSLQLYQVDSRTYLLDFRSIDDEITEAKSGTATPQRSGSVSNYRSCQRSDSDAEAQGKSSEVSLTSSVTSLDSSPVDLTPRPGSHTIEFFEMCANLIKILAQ
The target in assay [10] is Serine/threonine-protein kinase Nek4 (Homo sapiens) (UniProt P51957). Kind of assay: Selectivity interaction (KinomeScan (DiscoverX)) EUB0001049a NEK4. As to conditions: at 1 µM.
Sequence of Serine/threonine-protein kinase Nek4 (Homo sapiens) (P51957 whole entry, looked up): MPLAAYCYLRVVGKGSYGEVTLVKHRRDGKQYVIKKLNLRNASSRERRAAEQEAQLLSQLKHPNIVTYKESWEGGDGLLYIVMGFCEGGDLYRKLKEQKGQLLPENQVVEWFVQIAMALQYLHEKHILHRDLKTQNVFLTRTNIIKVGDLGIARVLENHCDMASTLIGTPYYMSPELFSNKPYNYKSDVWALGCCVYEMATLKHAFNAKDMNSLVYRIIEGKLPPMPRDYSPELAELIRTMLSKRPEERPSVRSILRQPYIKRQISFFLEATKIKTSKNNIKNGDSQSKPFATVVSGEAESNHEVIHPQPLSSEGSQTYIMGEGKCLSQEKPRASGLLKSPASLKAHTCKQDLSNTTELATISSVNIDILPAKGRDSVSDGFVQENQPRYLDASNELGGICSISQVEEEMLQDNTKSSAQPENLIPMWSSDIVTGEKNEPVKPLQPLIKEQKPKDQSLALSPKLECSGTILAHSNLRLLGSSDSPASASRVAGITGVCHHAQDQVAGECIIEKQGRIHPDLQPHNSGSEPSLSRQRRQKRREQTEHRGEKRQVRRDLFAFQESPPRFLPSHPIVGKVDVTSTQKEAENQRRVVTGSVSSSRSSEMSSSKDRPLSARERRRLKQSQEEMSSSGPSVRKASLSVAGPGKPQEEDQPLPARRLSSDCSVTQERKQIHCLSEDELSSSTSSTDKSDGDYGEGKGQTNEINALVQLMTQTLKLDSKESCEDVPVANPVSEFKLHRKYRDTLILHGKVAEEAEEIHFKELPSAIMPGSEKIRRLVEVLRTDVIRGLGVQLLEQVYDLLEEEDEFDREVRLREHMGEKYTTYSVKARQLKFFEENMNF
The target in assay [11] is Cyclin-dependent kinase 5 (Homo sapiens, UniProt Q00535). Nature of the assay: Selectivity interaction (KinomeScan (DiscoverX)) EUB0000655a CDK5. The conditions noted are these: at 10 µM.
In assay [12] the target is T3, Histone-lysine N-methyltransferase SUV39H1 (Homo sapiens) (UniProt O43463).
T3 sequence (whole entry): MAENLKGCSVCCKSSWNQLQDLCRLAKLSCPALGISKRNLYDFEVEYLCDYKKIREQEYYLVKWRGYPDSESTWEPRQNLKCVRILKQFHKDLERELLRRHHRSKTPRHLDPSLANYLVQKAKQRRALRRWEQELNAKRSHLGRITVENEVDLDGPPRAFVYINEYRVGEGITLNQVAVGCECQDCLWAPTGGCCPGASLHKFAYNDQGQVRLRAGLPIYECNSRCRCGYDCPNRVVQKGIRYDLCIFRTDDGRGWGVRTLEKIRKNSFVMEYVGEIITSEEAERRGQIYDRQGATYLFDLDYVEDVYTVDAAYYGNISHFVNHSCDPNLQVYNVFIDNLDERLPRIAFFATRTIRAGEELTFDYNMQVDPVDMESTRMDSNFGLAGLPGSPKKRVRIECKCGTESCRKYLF
Kind of assay: Selectivity interaction (Transferase panel (protein, RNA, and DNA methyltransferases. and EP300 (acetyltransferase))) EUB0000270b SUV39H1.

Assay [13] has as its target Fibroblast growth factor receptor 1 (Homo sapiens, UniProt P11362). Kind of assay: Selectivity interaction (KinomeScan (DiscoverX)) EUB0000618a FGFR1. The conditions noted are these: at 10 µM.
The target of assay [14] is Mitogen-activated protein kinase 1 (Homo sapiens, UniProt P28482). Kind of assay: Selectivity interaction (Millipore kinase profiler) EUB0000124b MAPK1. The conditions noted are these: at 10 µM.
Sequence of Mitogen-activated protein kinase 1 (P28482 whole entry): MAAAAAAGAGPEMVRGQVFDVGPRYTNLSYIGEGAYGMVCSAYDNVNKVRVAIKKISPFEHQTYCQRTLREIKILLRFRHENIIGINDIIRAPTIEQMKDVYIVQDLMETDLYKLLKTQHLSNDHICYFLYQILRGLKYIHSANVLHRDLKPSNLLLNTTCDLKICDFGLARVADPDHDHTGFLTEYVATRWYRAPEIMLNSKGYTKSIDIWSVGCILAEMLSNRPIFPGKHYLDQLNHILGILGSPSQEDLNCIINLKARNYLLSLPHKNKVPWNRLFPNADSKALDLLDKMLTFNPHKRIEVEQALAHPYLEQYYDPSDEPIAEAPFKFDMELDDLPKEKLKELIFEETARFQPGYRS

Molecules are shown by their SMILES. Bounds are passed on as bounds.

Sequence of Fibroblast growth factor receptor 1 (P11362 22-822 limits assumed): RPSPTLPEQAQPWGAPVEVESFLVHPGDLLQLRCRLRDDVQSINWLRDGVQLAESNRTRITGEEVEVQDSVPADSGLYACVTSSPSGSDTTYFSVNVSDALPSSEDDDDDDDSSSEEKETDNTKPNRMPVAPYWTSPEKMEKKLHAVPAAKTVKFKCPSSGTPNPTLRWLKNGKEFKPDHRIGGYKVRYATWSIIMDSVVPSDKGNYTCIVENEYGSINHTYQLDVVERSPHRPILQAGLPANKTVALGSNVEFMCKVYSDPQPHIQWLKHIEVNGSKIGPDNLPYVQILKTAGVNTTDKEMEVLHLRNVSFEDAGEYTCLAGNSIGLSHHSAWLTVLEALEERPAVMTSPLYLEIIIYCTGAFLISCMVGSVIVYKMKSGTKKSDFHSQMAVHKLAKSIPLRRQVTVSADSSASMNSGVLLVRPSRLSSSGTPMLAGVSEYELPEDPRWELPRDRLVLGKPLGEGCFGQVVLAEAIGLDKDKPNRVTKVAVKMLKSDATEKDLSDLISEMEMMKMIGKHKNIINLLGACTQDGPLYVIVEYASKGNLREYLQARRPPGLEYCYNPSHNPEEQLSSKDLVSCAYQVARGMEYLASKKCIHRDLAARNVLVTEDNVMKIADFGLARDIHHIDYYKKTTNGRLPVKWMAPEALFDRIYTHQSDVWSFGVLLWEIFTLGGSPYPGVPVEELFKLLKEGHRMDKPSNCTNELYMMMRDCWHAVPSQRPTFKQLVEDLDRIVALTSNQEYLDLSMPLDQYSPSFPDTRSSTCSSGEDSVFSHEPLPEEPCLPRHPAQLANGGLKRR
Sequence of Ribosomal protein S6 kinase alpha-3 (P51812 whole entry): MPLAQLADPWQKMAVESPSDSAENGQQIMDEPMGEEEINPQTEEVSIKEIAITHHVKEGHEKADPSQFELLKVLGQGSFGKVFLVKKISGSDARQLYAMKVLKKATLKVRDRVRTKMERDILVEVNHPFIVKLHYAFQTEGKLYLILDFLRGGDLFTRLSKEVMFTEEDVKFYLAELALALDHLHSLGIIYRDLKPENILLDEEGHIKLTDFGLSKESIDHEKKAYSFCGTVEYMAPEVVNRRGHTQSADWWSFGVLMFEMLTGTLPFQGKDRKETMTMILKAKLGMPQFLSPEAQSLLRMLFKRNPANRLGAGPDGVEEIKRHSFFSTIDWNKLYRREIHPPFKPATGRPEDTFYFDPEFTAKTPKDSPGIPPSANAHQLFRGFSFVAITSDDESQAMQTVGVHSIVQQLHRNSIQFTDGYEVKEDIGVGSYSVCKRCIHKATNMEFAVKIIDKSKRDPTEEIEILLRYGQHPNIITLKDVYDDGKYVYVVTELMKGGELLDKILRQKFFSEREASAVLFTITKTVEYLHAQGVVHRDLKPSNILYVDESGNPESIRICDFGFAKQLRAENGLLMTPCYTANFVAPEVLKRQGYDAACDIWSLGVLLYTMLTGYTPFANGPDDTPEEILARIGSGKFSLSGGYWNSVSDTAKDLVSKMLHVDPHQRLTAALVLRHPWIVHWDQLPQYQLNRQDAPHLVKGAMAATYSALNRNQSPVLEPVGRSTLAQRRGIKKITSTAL
Sequence of Dual specificity protein kinase CLK4 (Q9HAZ1 whole entry, looked up): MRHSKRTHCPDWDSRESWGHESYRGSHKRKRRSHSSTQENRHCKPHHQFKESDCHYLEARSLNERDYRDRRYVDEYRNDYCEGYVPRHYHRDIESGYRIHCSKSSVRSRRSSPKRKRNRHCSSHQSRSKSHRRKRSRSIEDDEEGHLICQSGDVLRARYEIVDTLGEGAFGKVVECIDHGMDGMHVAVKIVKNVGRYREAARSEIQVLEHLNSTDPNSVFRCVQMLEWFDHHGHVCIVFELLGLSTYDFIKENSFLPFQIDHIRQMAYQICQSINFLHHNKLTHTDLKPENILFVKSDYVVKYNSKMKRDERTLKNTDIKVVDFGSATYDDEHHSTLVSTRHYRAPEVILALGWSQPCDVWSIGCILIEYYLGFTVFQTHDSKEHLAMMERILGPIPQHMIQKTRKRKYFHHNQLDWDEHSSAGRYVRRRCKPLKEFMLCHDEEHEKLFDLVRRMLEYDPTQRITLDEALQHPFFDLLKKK

Turning to `COCC(=O)NC/C=C/c1ccc2ncnc(Nc3ccc(Oc4ccc(C)nc4)c(C)c3)c2c1` [CP-724714], the % of control in [1] stood at 100%.

On to `N#Cc1cccc(-c2c[nH]c3ncnc(N4CCOCC4)c23)c1`, for which, in [2], the % of inhibition stood at 2%. `CNC(=O)Nc1ccc(-c2nc(N3CC4CCC(C3)O4)c3cnn(C4CCC5(CC4)OCCO5)c3n2)cc1`: the % of inhibition in [3] was -4%. This compound also returned a % of control in assay [4] of 84%. For `CC[C@@H]1[C@H](F)C(=O)N[C@@H]1COc1nccc2cc(C(N)=O)c(OC)cc12` [ZIMLOVISERTIB], the % of inhibition in assay [5] came to 67.7%. On to `CN(C)C/C=C/C(=O)Nc1ccc(C(=O)N2CCCC(Nc3ncc(Cl)c(-c4c[nH]c5ccccc45)n3)C2)cc1` (stereo not given), for which the % of control in [6] is 100%; in assay [7], 73%; in assay [8], 100%. The term IC50 denotes the concentration at which inhibition is half-maximal. In turn, `CCc1cccc(CC)c1NC(=O)c1nn(C)c2c1CCc1cnc(Nc3ccc(C(=O)NC4CCN(C)CC4)cc3OC(F)(F)F)nc1-2` came in with an IC50 in assay [9] above 10 µM. Consider `COc1cc(Nc2nc(C)cc(-c3cnn4nc(OC)ccc34)n2)cc(C(F)(F)F)c1`, for which the % of control in assay [10] stood at 90%. Regarding `CN(C)CCOc1ccc(-c2nc(-c3ccncc3)c(-c3ccc4c(c3)CC/C4=N\O)[nH]2)cc1`, the % of control in [11] was 100%. `Cc1cc(CN)cc(C)c1-c1ncn(C)c1-c1cncn1C`: the % activity is above 90% in assay [12] (at 1 µM) and above 80% in assay [12] (at 10 µM). For `O[C@H]1CC[C@H](Nc2ncc3nc(Nc4c(F)cc(F)cc4F)n([C@H]4CCOC4)c3n2)CC1`, in assay [13], the % of control is 69%. As for `CC(=O)Nc1cccc(-n2c(=O)n(C3CC3)c(=O)c3c(Nc4ccc(I)cc4F)n(C)c(=O)c(C)c32)c1`, the % of control in assay [14] was found to be 108%.

(Values after ChEMBL document CHEMBL5465560, “Selectivity Literature for EUbOPEN Chemogenomic Library” (2024).)
